Read-outs that look alike come from different tables or passages of the source.
Key:
[1] = Drug toxicity evaluation by histopathology (H&E staining); format: in vivo, mice; conditions: 50 mg/kg or 100 mg/kg i.p. daily for two weeks
Experimental: We further explored the in vivo efficacy of 8-074. First, we conducted a drug toxicity evaluation by histopathology using H&E staining. […] Given the in vivo toxicity and body weight loss during dose escalation, we determined 50 mg/kg for use in the in vivo mechanistic study. The anti-tumor effect of 8-074 was also tested in two other murine syngeneic tumor models (B16F10 and MC38, which are models of melanoma and colon adenocarcinoma, respectively).
Supplementary file 13046_2022_2289_MOESM3_ESM.pdf: Additional file 3: Fig. S3. Selectivity and safety analysis of 8-074. (a) Representative hematoxylin and eosin (H&E) staining micrograph (200 ×) of heart, liver, lung, kidney, spleen, and intestine sections from mice receiving vehicle, 50 mg/kg, or 100 mg/kg 8-074 for two weeks. Scale bar = 100 μm. Vehicle, daily administration of 50 μL DMSO by intraperitoneal injection; 50 mg/kg and 100 mg/kg, daily administration of the corresponding dose (volume less than or equal to 50 μL) by intraperitoneal injection. The cell morphology, number, and distribution in heart, liver, lung, kidney, spleen, and intestine tissues after 8-074 injection were not different from those in the vehicle group. (b and c) Effects of 8-074 on body weight in mice. Data represents the mean ± SD from biological quadruplicates. All error bars represent mean ± SD. Data are from three independent experiments.

macrophages = test: Macrophage markers by qPCR; format: cell-based; conditions: compared with vehicle
Experimental: The intracellular cytokines by TILs or in vitro differentiated T helper cells were quantified after restimulation with PMA plus ionomycin in the presence of GolgiStop for 6 h. The total RNA was isolated using the improved TRizol-based (Sigma, Darmstadt, Germany) method for qPCR analysis, and the mRNA expression was analyzed using a StepOnePlus (Life Technologies, Carlsbad, USA) real-time PCR instrument using housekeeping gene β-actin and Gapdh internal standards. qPCR was performed using A Power SYBR Green PCR Master Mix (Accurate Biology, Hunan, China) and two-cycle amplification for 40 cycles followed by the melting curve. The sequence of primers is listed in the Additional file 6: Table S1. In addition, the cytokines were quantified in cell-free culture supernatants using enzymelinked immunosorbent assay (ELISA) kit (the optical density (OD) value was measured at 450 nm, using 570 nm or 630 nm as the reference wavelengths, Multisciences, Hangzhou, China). The kit was used according to the manufacturer’s instructions.
(§1) To confirm the in vitro specificity of 8-074, splenocytes from C57BL/6 wild-type mice were activated by plate-bound anti-CD3 and anti-CD28 antibodies and polarized with anti-IL-4 and IL-12 to obtain Th1 cells. IFN-γ, a signature cytokine of Th1 cells, was not affected by LYC-55716 or 8-074 compared with vehicle alone (Fig. 2j, Fig. S2g).

mouse Tc17 cells = test: Mouse Th17/Tc17 differentiation dose-response (flow cytometry); format: cell-based; conditions: for EC50: Mus musculus
Th1 cells = test: Th1 specificity, IFN-γ by flow cytometry; format: cell-based, C57BL/6 wild-type mice; conditions: compared with vehicle alone
Description: as §1

[2] = Pharmacokinetics in C57BL/6 mice; format: in vivo; conditions: male, C57BL/6, mouse, plasma; for Tmax: n = 3
Experimental: Male C57BL/6 mice were divided into two groups: 8-074 single intravenous injection group (2 mg/kg, n = 3) and 8-074 single gavage group (5 mg/kg, n = 3). After administration, blood samples were collected at 0.25, 0.5, 1, 2, 5, 7, and 24 h. Then the plasma samples were separated and stored at − 80 °C until the analysis. After being thawed at room temperature, 10 μL of plasma samples were added with 150 μL of precipitant containing the internal standard (verapamil 40 ng/mL) for the protein precipitation. The supernatant was mixed with a suitable volume of water and then analyzed using liquid chromatography in tandem with mass spectrometry (LC-MS/MS). The concentration of 8–074 in the plasma of the C57 mice after administration was determined using the inter-run standard curve samples (linear range of 3–10,000 ng/mL) and quality control samples.

[3] = fit of dose-response curve Fig. 1i

- EC50 (mouse Tc17 cells; 8-074 0.001 to 320 nM, Th17% by flow cytometry, read-out: EC50, stimulation of mouse Tc17 cells): 11.2 nM
- EC50 (mouse Tc17 cells; Fig. S2b summary, read-out: mTh17): 11.2 nM
- MRT inf ([2]; iv, 2 mg/kg, i.v. 2 mg/kg, first MRTINF line (r8)): 3.84 ± 0.33 h
- MRT inf ([2]; iv, 2 mg/kg, i.v. 2 mg/kg, second MRTINF line (r9)): 2.97 ± 0.25 h
- AUC(0-inf) ([2]; iv, i.v. 2 mg/kg): 20600 ng·h/mL
- AUC(0-t) ([2]; iv, i.v. 2 mg/kg): 20500 ng·h/mL
- Cmax ([2]; iv, i.v. 2 mg/kg): 4800 ± 1200 ng/mL
- clearance ([2]; iv, i.v. 2 mg/kg): 1.63 ± 0.11 mL/min/kg
- Tmax ([2]; iv, i.v. 2 mg/kg): 0.25 h
- bioavailability ([2]; oral, i.g. 5 mg/kg vs i.v. 2 mg/kg): 38%
- MRT inf ([2]; po, 5 mg/kg, i.g. 5 mg/kg, first MRTINF line (r8)): 4.49 ± 1.2 h
- MRT inf ([2]; po, 5 mg/kg, i.g. 5 mg/kg, second MRTINF line (r9)): 3.34 ± 0.52 h
- AUC(0-inf) ([2]; po, i.g. 5 mg/kg): 19800 ng·h/mL
- AUC(0-t) ([2]; po, i.g. 5 mg/kg): 19700 ng·h/mL
- Cmax ([2]; po, i.g. 5 mg/kg): 3020 ± 110 ng/mL
- Tmax ([2]; po, i.g. 5 mg/kg): 1.67 ± 0.58 h
- half-life ([2]; po, single intragastric administration of 5 mg/kg): 3.34 ± 0.52 h
- AUC ([2]; route not given): 20600 ± 1500 ng·h/mL
SMILES: CCS(=O)(=O)c1ccc(CC(=O)Nc2ccc(-c3ccc(CC(C)C)c(C#N)c3)c(C(F)(F)F)c2)cc1 [8-074]
- histopathology, H&E staining of organs [1]: No noteworthy necrosis or other abnormality was observed
- gene expression of macrophage markers Arg1, Il-1β, Il-6, and Il-10 (macrophages): no significant change
- HillSlope (mouse Tc17 cells; [3]): 1.006
- Span (mouse Tc17 cells; [3]): 111.9
- IFN-γ, signature cytokine of Th1 cells (Th1 cells): not affected
